Reference: patent publication US9580437B2, “Triazolopyrimidine compounds and uses thereof” (Novartis AG, priority 2014, dated 2017)

Columns and labels:
[1] = molecular target: wild type PRC2 (wtPRC2) complex (Homo sapiens (Human), UniProt O75530); test: EED LC-MS assay; type: biochemical; details: read-out: (b) IC50 EED LC-MS Qualified
Method: A 6 μL solution of 3 μM of the peptide substrate H3K27Me0 (histone H3[21-44]-biotin) in reaction buffer was added to initiate each reaction. […] ELISA (H3K27 Methylation) Assay

EED (1-441)-His protein = EED (1-441)-His protein (Homo sapiens (Human), UniProt O75530); test: EED-H3K27Me3 peptide competition binding assay by AlphaScreen; details: read-out: (a) IC50 EED Alphascreen binding Qualified
From the text: EED-H3K27Me3 peptide competition binding assay by AlphaScreen (α-screen)

Chain of wild type PRC2 (wtPRC2) complex (O75530 whole entry): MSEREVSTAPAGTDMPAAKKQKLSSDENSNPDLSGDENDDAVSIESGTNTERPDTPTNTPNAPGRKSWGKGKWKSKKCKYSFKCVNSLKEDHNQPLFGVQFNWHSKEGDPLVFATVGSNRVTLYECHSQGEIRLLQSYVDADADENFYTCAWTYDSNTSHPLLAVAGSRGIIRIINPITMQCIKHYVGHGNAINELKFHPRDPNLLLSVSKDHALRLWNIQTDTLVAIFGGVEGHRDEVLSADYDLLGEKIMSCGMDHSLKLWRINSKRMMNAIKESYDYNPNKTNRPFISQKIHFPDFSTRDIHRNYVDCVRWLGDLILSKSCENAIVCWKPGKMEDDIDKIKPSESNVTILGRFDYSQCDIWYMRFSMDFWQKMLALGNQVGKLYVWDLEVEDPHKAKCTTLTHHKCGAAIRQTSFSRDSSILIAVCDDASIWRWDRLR
Chain of wild type PRC2 (wtPRC2) complex (Q15910 whole entry partner): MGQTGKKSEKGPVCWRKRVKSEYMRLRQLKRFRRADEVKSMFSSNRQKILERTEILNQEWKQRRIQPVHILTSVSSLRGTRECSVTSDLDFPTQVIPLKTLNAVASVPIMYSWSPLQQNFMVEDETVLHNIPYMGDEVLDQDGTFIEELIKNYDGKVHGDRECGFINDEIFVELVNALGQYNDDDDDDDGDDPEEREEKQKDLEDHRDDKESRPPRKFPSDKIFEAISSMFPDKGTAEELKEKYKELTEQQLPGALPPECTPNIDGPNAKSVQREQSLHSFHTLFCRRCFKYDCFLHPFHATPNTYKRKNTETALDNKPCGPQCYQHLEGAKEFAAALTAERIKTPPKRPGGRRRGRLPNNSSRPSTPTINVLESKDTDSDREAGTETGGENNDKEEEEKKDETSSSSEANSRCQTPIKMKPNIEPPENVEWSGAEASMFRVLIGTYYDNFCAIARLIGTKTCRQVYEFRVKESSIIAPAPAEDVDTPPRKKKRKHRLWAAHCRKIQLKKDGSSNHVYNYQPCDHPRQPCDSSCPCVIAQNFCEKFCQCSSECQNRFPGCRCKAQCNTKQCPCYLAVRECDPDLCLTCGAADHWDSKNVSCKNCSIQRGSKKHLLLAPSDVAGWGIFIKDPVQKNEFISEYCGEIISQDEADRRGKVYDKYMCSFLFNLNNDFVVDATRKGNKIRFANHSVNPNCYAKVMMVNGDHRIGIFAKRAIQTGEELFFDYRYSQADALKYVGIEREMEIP
Chain of wild type PRC2 (wtPRC2) complex (Q15022 whole entry partner): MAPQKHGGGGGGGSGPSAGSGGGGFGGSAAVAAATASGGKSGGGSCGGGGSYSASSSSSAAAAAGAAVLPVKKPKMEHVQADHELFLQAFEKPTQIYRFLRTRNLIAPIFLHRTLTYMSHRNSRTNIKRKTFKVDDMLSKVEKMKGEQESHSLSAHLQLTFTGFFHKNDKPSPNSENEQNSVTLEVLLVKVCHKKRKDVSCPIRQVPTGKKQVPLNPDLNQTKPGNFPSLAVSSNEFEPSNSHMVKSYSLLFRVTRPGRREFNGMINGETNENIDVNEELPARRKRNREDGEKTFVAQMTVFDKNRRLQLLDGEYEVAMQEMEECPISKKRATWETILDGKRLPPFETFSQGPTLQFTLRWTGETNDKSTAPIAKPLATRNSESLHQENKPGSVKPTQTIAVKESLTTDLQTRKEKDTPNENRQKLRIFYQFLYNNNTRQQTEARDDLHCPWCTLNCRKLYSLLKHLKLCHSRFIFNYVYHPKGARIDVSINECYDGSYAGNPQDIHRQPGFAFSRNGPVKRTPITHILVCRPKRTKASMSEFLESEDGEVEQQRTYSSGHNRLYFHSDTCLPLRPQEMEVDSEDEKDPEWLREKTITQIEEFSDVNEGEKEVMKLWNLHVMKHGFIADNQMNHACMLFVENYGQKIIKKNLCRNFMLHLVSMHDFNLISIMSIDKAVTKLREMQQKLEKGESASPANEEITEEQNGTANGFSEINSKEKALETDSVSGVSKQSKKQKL
Chain of EED (1-441)-His protein (O75530 whole entry): as the sequence (O75530 whole entry) above

Compound	IC50 [1] [nM]	IC50 (EED (1-441)-His protein) [nM]
CN(C)CCc1ccc(-c2cnc(NCc3cccc4c3CCO4)n3cnnc23)cc1 [Example 35, N-((2,3-dihydrobenzofuran-4-yl)methyl)-8-(4-(2-(dimethylamino)ethyl)phenyl)-[1,2,4]triazolo[4,3-c]pyrimidin-5-amine]	15.3	8.3
O=CN1CCCN(c2ccc(-c3cnc(NCc4cccc5c4CCO5)n4cnnc34)cn2)CC1 [Example 113, 4-(5-(5-(((2,3-dihydrobenzofuran-4-yl)methyl)amino)-[1,2,4]triazolo[4,3-c]pyrimidin-8-yl)pyridin-2-yl)-1,4-diazepane-1-carbaldehyde]	15.7	12.7
Fc1ccc2c(c1CNc1ncc(-n3ccnc3)c3nncn13)CCO2 [Example 240, N-((5-fluoro-2,3-dihydrobenzofuran-4-yl)methyl)-8-(1H-imidazol-1-yl)-[1,2,4]triazolo[4,3-c]pyrimidin-5-amine]	14.3	4.9
Fc1ccc2c(c1CNc1ncc(-c3ccnnc3)c3nncn13)CCO2 [Example 202, N-((5-fluoro-2,3-dihydrobenzofuran-4-yl)methyl)-8-(pyridazin-4-yl)-[1,2,4]triazolo[4,3-c]pyrimidin-5-amine]	18.7	9.6
Fc1ccc2c(c1CNc1ncc(-c3cccnc3)c3nncn13)CCO2 [Example 44, N-((5-fluoro-2,3-dihydrobenzofuran-4-yl)methyl)-8-(pyridin-3-yl)-[1,2,4]triazolo[4,3-c]pyrimidin-5-amine]	19.2	12.8
c1cc(CNc2ncc(-c3ccc(N4CCOCC4)nc3)c3nncn23)c2c(c1)OCC2 [Example 69, N-((2,3-dihydrobenzofuran-4-yl)methyl)-8-(6-morpholinopyridin-3-yl)-[1,2,4]triazolo[4,3-c]pyrimidin-5-amine]	377	182
Cc1noc(C)c1-c1cnc(NCc2cccc3c2CCO3)n2cnnc12 [Example 59, N-((2,3-dihydrobenzofuran-4-yl)methyl)-8-(3,5-dimethylisoxazol-4-yl)-[1,2,4]triazolo[4,3-c]pyrimidin-5-amine]	38.7	31.8
O=CN1CCN(CCc2ccc(-c3cnc(NCc4cccc5c4CCO5)n4cnnc34)cn2)CC1 [Example 107, 4-(2-(5-(5-(((2,3-dihydrobenzofuran-4-yl)methyl)amino)-[1,2,4]triazolo[4,3-c]pyrimidin-8-yl)pyridin-2-yl)ethyl)piperazine-1-carbaldehyde]	25	12.4
N#Cc1ccccc1-c1cnc(NCc2c(F)ccc3c2CCO3)n2cnnc12 [Example 121, 2-(5-(((5-fluoro-2,3-dihydrobenzofuran-4-yl)methyl)amino)-[1,2,4]triazolo[4,3-c]pyrimidin-8-yl)benzonitrile]	22.1	13.4
Cc1cnn(-c2cnc(NCc3c(F)ccc4c3CCO4)n3cnnc23)c1 [Example 239, N-((5-fluoro-2,3-dihydrobenzofuran-4-yl)methyl)-8-(4-methyl-1H-pyrazol-1-yl)-[1,2,4]triazolo[4,3-c]pyrimidin-5-amine]	15.9	6.8
CCn1nccc1-c1cnc(NCc2c(F)ccc3c2CCO3)n2cnnc12 [Example 143, 8-(1-ethyl-1H-pyrazol-5-yl)-N-((5-fluoro-2,3-dihydrobenzofuran-4-yl)methyl)-[1,2,4]triazolo[4,3-c]pyrimidin-5-amine]	31.5	18.1
CN1CCN(C(=O)c2ccc(-c3cnc(NCc4c(F)ccc5c4CCO5)n4cnnc34)cc2)CC1 [Example 72, (4-(5-(((5-fluoro-2,3-dihydrobenzofuran-4-yl)methyl)amino)-[1,2,4]triazolo[4,3-c]pyrimidin-8-yl)phenyl)(4-methylpiperazin-1-yl)methanone]	17.5	9.3
CCNC(=O)c1ccc(-c2cnc(NCc3cccc4c3CCO4)n3cnnc23)cn1 [Example 114, 5-(5-(((2,3-dihydrobenzofuran-4-yl)methyl)amino)-[1,2,4]triazolo[4,3-c]pyrimidin-8-yl)-N-ethylpicolinamide]	18.6	15.4
FC(F)c1ccc(-c2cnc(NCc3cccc4c3CCO4)n3cnnc23)cn1 [Example 154, 8-(6-(difluoromethyl)pyridin-3-yl)-N-((2,3-dihydrobenzofuran-4-yl)methyl)-[1,2,4]triazolo[4,3-c]pyrimidin-5-amine]	36.9	20.1
CN(C)CCc1ccc(-c2cnc(NCc3cccc4c3CCO4)n3cnnc23)cn1 [Example 53, N-((2,3-dihydrobenzofuran-4-yl)methyl)-8-(6-(2-(dimethylamino)ethyl)pyridin-3-yl)-[1,2,4]triazolo[4,3-c]pyrimidin-5-amine]	28.7	12.4

The next molecules have a lower IC50 [1] than those just listed; values first:

IC50 [1] [nM]	IC50 (EED (1-441)-His protein) [nM]	Compound
13.6	11.7	CC1(C)COC(c2ccc(-c3cnc(NCc4cccc5c4CCO5)n4cnnc34)cn2)=N1 [Example 101, N-((2,3-dihydrobenzofuran-4-yl)methyl)-8-(6-(4,4-dimethyl-4,5-dihydrooxazol-2-yl)pyridin-3-yl)-[1,2,4]triazolo[4,3-c]pyrimidin-5-amine]
13.2	26	CC1CCCN1c1ccc(-c2cnc(NCc3cccc4c3CCO4)n3cnnc23)cn1 (centres unmarked) [Example 96, N-((2,3-dihydrobenzofuran-4-yl)methyl)-8-(6-(2-methylpyrrolidin-1-yl)pyridin-3-yl)-[1,2,4]triazolo[4,3-c]pyrimidin-5-amine]
12.8	5.2	CN(C)C(=O)c1ccc(-c2cnc(NCc3cccc4c3CCO4)n3cnnc23)cn1 [Example 95, 5-(5-(((2,3-dihydrobenzofuran-4-yl)methyl)amino)-[1,2,4]triazolo[4,3-c]pyrimidin-8-yl)-N,N-dimethylpicolinamide]
7.3	5.9	Cc1ccc(-c2cnc(NCc3c(F)ccc4c3CCO4)n3cnnc23)c(C(F)F)n1 [Example 201, 8-(2-(difluoromethyl)-6-methylpyridin-3-yl)-N-((5-fluoro-2,3-dihydrobenzofuran-4-yl)methyl)-[1,2,4]triazolo[4,3-c]pyrimidin-5-amine]
6.6	4	Fc1ccc2c(c1CNc1ncc(-c3ccc(C4CC4)nc3)c3nncn13)CCO2 [Example 119, 8-(6-cyclopropylpyridin-3-yl)-N-((5-fluoro-2,3-dihydrobenzofuran-4-yl)methyl)-[1,2,4]triazolo[4,3-c]pyrimidin-5-amine]
6	1.7	Cc1nc(S(C)(=O)=O)ccc1-c1cnc(NCc2c(F)ccc3c2CCO3)n2cnnc12 [Example 139, N-((5-fluoro-2,3-dihydrobenzofuran-4-yl)methyl)-8-(2-methyl-6-(methylsulfonyl)pyridin-3-yl)-[1,2,4]triazolo[4,3-c]pyrimidin-5-amine]
6	2.6	Cc1c(-c2cnc(NCc3c(F)ccc4c3CCO4)n3cnnc23)ccnc1C(F)F [Example 181, 8-(2-(difluoromethyl)-3-methylpyridin-4-yl)-N-((5-fluoro-2,3-dihydrobenzofuran-4-yl)methyl)-[1,2,4]triazolo[4,3-c]pyrimidin-5-amine]
